Reference: patent US20260060910A1, “COMPOSITION FOR ACTIVATING EXTERNAL BARRIER” (Yuki Gosei Kogyo Co., Ltd., priority 2024, published 2026)

System: miRNA contained in exosomes secreted from C2C12 cells
Conditions: exosomes from β-alanine-treated C2C12 cells vs control; microarray; FIG. 4
Description: In this example, miRNAs in exosomes were analyzed by microarray.
The exosome solution purified in Example 2 was used for microarray analysis. The microarray experiment was outsourced to Kamakura Techno Science (Kanagawa, Japan). Based on the data obtained, samples with a ratio of 1.5 or more compared to the control and one of the signal values of two samples exceeding 100 were extracted as miRNAs with altered transcription levels.

NCCC(=O)O [β-alanine]
number of miRNAs decreased: 14
number of miRNAs increased: six
